From US6362369B1, “Phthalic acid diamide derivatives fluorine-containing aniline compounds as starting material, agricultural and horticultural insecticides, and a method for application of the insecticides” (Nihon Nohyaku Co., Ltd., priority 1997, dated 2002)

What was measured:
Type in all cases: in vivo
[1] = test system: diamondback moth (Plutella xylostella); experiment: Insecticidal effect on diamondback moth (Test Example 1); details: diamondback moth; judged by the mortality criterion of Test Example 1
Summary of the method: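 Triplicate groups of 10 insects: eggs laid on Chinese cabbage seedling by adults, seedling immersed then air-dried, kept at 25° C. Day-6 hatch counts gave mortality, rated by criterion.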

[2] = test system: rice leafroller (Cnaphalocrocis medinalis); experiment: Insecticidal effect on rice leafroller (Test Example 3); details: 500 ppm; rice lamina immersed; third-instar larvae of rice leafroller; four days after inoculation; 25° C., humidity 70%
Summary of the method: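 Insecticidal effect is judged by a predefined criterion from dead/alive counts four days after infesting air-dried lamina with third-instar larvae, kept on moistened filter paper at 25° C, 70% humidity.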

[3] = test system: common cutworm (Spodoptera Litura); experiment: Insecticidal effect on common cutworm (Test Example 2); details: 500 ppm; cabbage leaf immersed; second-instar larvae of common cutworm; eight days after inoculation; 25° C.
Summary of the method: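 Insecticidal effect was rated from percent mortality of second-instar larvae exposed to air-dried treatment at 25° C for 8 days.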

Row | Structure (SMILES) | Insecticidal effect, Test Example 1 [1] | Insecticidal effect, Test Example 3 [2] | Insecticidal effect, Test Example 2 [3]
1 | Cc1cc(OCC(F)(F)C(F)F)ccc1NC(=O)c1cccc(I)c1C(=O)NC(C)C [compound 388] | A (100) | B (99-90) | A (100)
2 | Cc1cc(OC(F)(F)Br)ccc1NC(=O)c1cccc(I)c1C(=O)NC(C)C [compound 389] | A (100) | A (100) | A (100)
3 | Cc1cc(OC(F)(F)C(F)F)ccc1NC(=O)c1cccc(I)c1C(=O)NC(C)C [compound 390] | A (100) | A (100) | A (100)
4 | Cc1cc(OC(F)(F)C(F)F)c(Cl)cc1NC(=O)c1cccc(I)c1C(=O)NC(C)C [compound 391] | A (100) | A (100) | A (100)
5 | Cc1cc(OC(F)(F)C(F)Cl)ccc1NC(=O)c1cccc(I)c1C(=O)NC(C)C (stereo not drawn) [compound 392] | A (100) | A (100) | A (100)
6 | Cc1cc(OC(F)(F)C(F)C(F)(F)F)ccc1NC(=O)c1cccc(I)c1C(=O)NC(C)C (stereo not drawn) [compound 393] | A (100) | A (100) | A (100)
7 | Cc1cc(OC(F)(F)C(F)(Br)C(F)(F)F)ccc1NC(=O)c1cccc(I)c1C(=O)NC(C)C (stereo not drawn) [compound 394] | A (100) | A (100) | A (100)
8 | Cc1cc(OC(F)(F)C(F)OC(F)(F)F)ccc1NC(=O)c1cccc(I)c1C(=O)NC(C)C (stereo not drawn) [compound 395] | A (100) | A (100) | A (100)
9 | Cc1cc(OC(F)F)c(Cl)cc1NC(=O)c1cccc(I)c1C(=O)NC(C)C [compound 396] | A (100) | A (100) | A (100)
10 | Cc1cc(Oc2c(F)c(F)c(F)c(F)c2F)ccc1NC(=O)c1cccc(I)c1C(=O)NC(C)C [compound 397] | A (100) | A (100) | A (100)
11 | Cc1cc(Oc2ccc(C(F)(F)F)cn2)ccc1NC(=O)c1cccc(I)c1C(=O)NC(C)C [compound 399] | A (100) | A (100) | A (100)
12 | Cc1cc(Oc2ncc(C(F)(F)F)cc2Cl)ccc1NC(=O)c1cccc(I)c1C(=O)NC(C)C [compound 400] | A (100) | A (100) | D (79-50)
13 | Cc1cc(SC(F)(F)C(F)(F)C(F)(F)F)ccc1NC(=O)c1cccc(I)c1C(=O)NC(C)C [compound 403] | A (100) | A (100) | B (99-90)
14 | Cc1cc(Sc2ccc(Cl)cc2)ccc1NC(=O)c1cccc(I)c1C(=O)NC(C)C [compound 404] | A (100) | A (100) | A (100)
15 | CC(C)NC(=O)c1c(I)cccc1C(=O)Nc1ccc(OC(F)(F)F)cc1Br [compound 406] | A (100) | A (100) | A (100)
16 | CC(C)NC(=O)c1c(I)cccc1C(=O)Nc1ccc(C(F)(F)C(F)(F)C(F)(F)F)cc1Cl [compound 407] | A (100) | A (100) | A (100)
17 | CC(C)NC(=O)c1c(I)cccc1C(=O)Nc1ccc(OC(F)(F)F)cc1Cl [compound 408] | A (100) | A (100) | B (99-90)
18 | CC(C)NC(=O)c1c(I)cccc1C(=O)Nc1ccc(OC(F)F)cc1C(F)(F)F [compound 409] | A (100) | A (100) | A (100)
19 | CC(C)NC(=O)c1c(I)cccc1C(=O)Nc1ccc(OC(F)F)c(C(F)(F)F)c1 [compound 410] | A (100) | A (100) | A (100)
20 | CC(C)NC(=O)c1cccc(I)c1C(=O)Nc1ccc(C(F)(C(F)(F)F)C(F)(F)F)cc1 [compound 416] | A (100) | A (100) | A (100)
21 | CC(C)NC(=O)c1cccc(I)c1C(=O)Nc1ccc(C(F)(F)C(F)(F)C(F)(F)F)cc1 [compound 417] | A (100) | A (100) | A (100)
22 | CC(C)NC(=O)c1cccc(I)c1C(=O)Nc1ccc(OC(F)(F)C(F)OC(F)(F)C(F)(F)C(F)(F)F)cc1 (stereo not drawn) [compound 419] | A (100) | A (100) | A (100)
23 | CC(C)NC(=O)c1cccc(I)c1C(=O)Nc1ccc(SC(F)F)cc1 [compound 421] | A (100) | A (100) | B (99-90)
24 | Cc1cc(Br)ccc1NC(=O)c1c(I)cccc1C(=O)NC(C)C [compound 430] | A (100) | D (79-50) | D (79-50)
25 | Cc1c(NC(=O)c2c(I)cccc2C(=O)NC(C)C)cccc1C(F)(F)F [compound 435] | A (100) | A (100) | B (99-90)
26 | Cc1cc(C(F)(F)F)ccc1NC(=O)c1c(I)cccc1C(=O)NC(C)C [compound 436] | A (100) | A (100) | B (99-90)
27 | Cc1cc(C(F)(F)C(F)(F)F)ccc1NC(=O)c1c(I)cccc1C(=O)NC(C)C [compound 437] | A (100) | A (100) | C (89-80)
28 | Cc1cc(C(F)(F)C(F)(F)C(F)(F)F)ccc1NC(=O)c1c(I)cccc1C(=O)NC(C)C [compound 438] | A (100) | A (100) | B (99-90)
29 | Cc1cc(C(F)(C(F)(F)F)C(F)(F)F)ccc1NC(=O)c1c(I)cccc1C(=O)NC(C)C [compound 439] | A (100) | A (100) | A (100)
30 | Cc1cc(C(F)(F)C(F)(F)C(F)(F)C(F)(F)F)ccc1NC(=O)c1c(I)cccc1C(=O)NC(C)C [compound 440] | A (100) | B (99-90) | C (89-80)
